pIC50: −log10 of the molar value.
Key:
[1] = biological target: recombinant human ACC1 (rhACC1) (Homo sapiens (Human), UniProt Q13085); assay: Transcreener ADP detection FP assay, direct inhibition of rhACC1; type: biochemical; settings: Geomean IC50, n ≥ 2 unless * then n = 1; 50 μM ATP, 30 μM acetyl-CoA
[2] = tested on: SZ95 sebocytes; assay: Radiometric measurement of de novo lipogenesis in cultured human sebocytes; type: cell-based; settings: Geomean IC50, n>2 unless * then n=1, 14C acetate incorporation into lipids (DNL)
Protocol: SZ95 sebocytes were grown in Human Sebocyte Growth Medium (HSGM) containing Sebomed® basal medium (Sigma-Aldrich, F8205) supplemented with 10% heat-inactivated fetal bovine serum (Gibco, 10100-147), 1% penicillin/streptomycin (Gibco, 15070-063), 1 mM calcium chloride (Fisher, BP9742-10X5) and 5 ng/mL recombinant human epidermal growth factor (Gibco, PHG0311). At 90% confluence, cells were washed with PBS and then detached with 0.05% Trypsin-EDTA (Gibco, 25300054). Prior to starting the assay, cells were centrifuged and resuspended in HSGM containing 5% charcoal-stripped serum (Life Technologies, 12676-029) instead of 10% heat-inactivated fetal bovine serum. Cells were added to 24-well plates at a density of 0.25×10^6 cells/well and incubated overnight at 37° C. to allow the cells to adhere to the culture plate. Cells were then treated with a dose response of compound (30, 1, 0.03, 0.006, 0.0009, 0.0002, and 0.00003 μM) with each concentration tested in duplicate. Briefly, compounds were dissolved in DMSO stocks and diluted 1:1000 into HSGM with charcoal-stripped media. The vehicle control wells were treated with 0.1% DMSO. After a 1-hour preincubation with compound or vehicle at 37° C., 0.25 μCi ^14C sodium acetate (American Radiolabeled Chemicals: ARC, 0173A) was added to each well. Plates were incubated for an additional two hours at 37° C. At the end of the incubation period, cells were removed from incubator, placed on ice, and then washed twice with ice-cold PBS to remove free ^14C-sodium acetate. Plates were sealed and stored at −20° C. until analysis. To induce lysis, 125 μL of mammalian protein extraction reagent (MPER; Fisher, 78501) was added to each well. Plates were shaken for 1 hour at room temperature and lysates transferred to individual 2 mL polypropylene tubes. Wells were then washed with 175 μL PBS, which was added to lysates. A chloroform:methanol solution (1:1 v/v, 450 μL) was added to each tube. All tubes were vortexed for 10 seconds and centrifuged at 14,000×g for 5 minutes at room temperature to separate the aqueous and organic phases. A 25 μL aliquot was removed from the bottom organic layer of each sample and added to 6 mL Optiphase Supermix scintillation fluid (PerkinElmer, 1200-439). Counts of ^14C were assessed by scintillation counting. DNL (counts of ^14C incorporated into lipids) was expressed as a percentage for compound treated cells relative to the vehicle control. IC50 values were determined using a non-linear regression (four parameter with variable slope) in GraphPad Prism.

[3] = Metabolite profile in liver microsomes, hepatocytes, recombinant human P450 and UGT enzymes, and animal plasma; type: in vitro ADME, mouse, rat, rabbit, dog, monkey; settings: recombinant human cytochrome P450 and UGT enzymes, plasma from animals
Protocol: The metabolite profile of compound of Example 14 was evaluated in liver microsomes and hepatocytes (mouse, rat, rabbit, dog, monkey, and human), recombinant human cytochrome P450 enzymes, recombinant human UGT enzymes, and plasma from animals (mouse, rat, and dog).

Row | Structure (SMILES) | pIC50 [1] | pIC50 [2] | metabolite profile [3]
1 | CCOc1cc(C(=O)N2CCC3(CC2)CC(=O)c2nc(C(C)(C)C)sc2C3)cc2c(C)nn(C)c12 [Example 14, 2-(tert-butyl)-1′-(7-ethoxy-1,3-dimethyl-1H-indazole-5-carbonyl)-5H-spiro[benzo[d]thiazole-6,4′-piperidin]-4(7H)-one] | 8.66 | 8.23 | oxidation and glucuronidation
2 | COc1cc(C(=O)N2CCC3(CC2)CC(=O)c2nc(C(C)(C)C)sc2C3)c2[nH]ncc2c1C [Example 33, 2-(tert-butyl)-1′-(5-methoxy-4-methyl-1H-indazole-7-carbonyl)-5H-spiro[benzo[d]thiazole-6,4′-piperidin]-4(7H)-one] | 8.29 | 7.42 | 
3 | COc1cnc2c(C)cc(C(=O)N3CCC4(CC3)CC(=O)c3nc(C(C)(C)C)sc3C4)cc2c1 [Example 19, 2-(tert-butyl)-1′-(3-methoxy-8-methylquinoline-6-carbonyl)-5H-spiro[benzo[d]thiazole-6,4′-piperidin]-4(7H)-one] | 8.00 | 7.68 | 
4 | COc1cc(C(=O)N2CCC3(CC2)CC(=O)c2nc(C(C)(C)C)sc2C3)cc2c(C)nn(C)c12 [Example 13, 2-(tert-butyl)-1′-(7-methoxy-1,3-dimethyl-1H-indazole-5-carbonyl)-5H-spiro[benzo[d]thiazole-6,4′-piperidin]-4(7H)-one] | 8.28 | 7.87 | 
5 | CNc1nc2c(C)cccc2cc1C(=O)N1CCC2(CC1)CC(=O)c1nc(C(C)(C)C)sc1C2 [Example 97] | 8.74 | 7.79 | 

Source: patent US20240109915A1, “NOVEL ACC INHIBITORS” (Pfizer Inc., priority 2022, published 2024)
